Source: patent US8936807B2, “Use of the cathelicidin LL-37 and derivatives thereof for wound healing” (Lipopeptide AB, priority 2003, dated 2015)

Assays:
HaCat cells = assay: Proliferation of HaCat cells assessed by flowcytometry and Trypan-Blue; format: cell-based, human; conditions: for Increased Proliferation (%): vs baseline
Method: HaCat cells were used for these experiments. HaCat cells are an immortalized human keratinocyte cell line (Boukamp et al., J Cell Biol 106:761-771, 1988), which is suitable for experimental keratinocyte research. HaCat cells were cultured in medium (DMEM, +10% FCS and PEST). Both types of cell cultures were treated with synthetic, bioactive LL-37 (lot YS 5253). […] Cells were harvested at different time-points (24 h, 48 h, 72 h and 96 h) and counted by flowcytometry (Becton-Dickinson) and stained by Trypan-Blue to evaluate viability. […] Proliferation and viability were also ascertained by measuring mitochondrial activity (WST-1, Roche, Cook et al. Anal Biochem 179:1-7, 1989).

[1] = Circular dichroism (CD) conformational measurements; format: physicochemical
Method: Samples for circular dichroism (CD) measurements were prepared in 10 mM aqueous phosphate buffer solution, pH 7.0, containing 200 ppm LL-37 (as the trifluoroacetate, lot 971/26), with and without 0.40% CPL-Galactolipid. The samples, 20 ml in 50 ml glass flasks, were vigorously shaken with an ST mixer (type B1, E. Büchler, Tübingen) set at 7.5 (corresponding to an approximate frequency of 220/min) for 2 h. They were then allowed to equilibrate and settle over night at 2-8° C.
CD spectra were recorded on a Jasco J-720 (Jasco Inc.) spectropolari-meter. The sample compartment with the cuvette cell (1 mm path length) was placed near the photomultiplier, in order to reduce effects of light scattering from the disper-sions. The samples were measured at room temperature and scanned from 280 to 200 nm at a rate of 20 nm/min, with a resolution of 1 nm and 3 accumulations per run. The results are expressed as the mean residue ellipticity, [θ], and the percentage of α-helical conformation at 222 nm is estimated by the following formula: ([θ]222+3900)·100/41900.

[2] = LL-37 25 μg/ml, 10% serum, 96 h
[3] = LL-37 50 μg/ml, 10% serum, 96 h
[4] = LL-37 100 μg/ml, 2% serum, 96 h
[5] = LL-37 100 μg/ml, 10% serum, 96 h
[6] = LL-37 100 μg/ml, no lipid, 2% serum, 72 h
[7] = LL-37 100 μg/ml, no lipid, 10% serum, 72 h
[8] = LL-37 100 μg/ml, with lipid 0.2%, 2% serum, 72 h
[9] = LL-37 100 μg/ml, with lipid 0.2%, 10% serum, 72 h

LLGDFFRKSKEKIGKEFKRIVQRIKDFLRNLVPRTES [LL-37]
Number of Cells (Mean) (HaCat cells; LL-37 25 μg/ml, 2% serum, 96 h): 32130 | Trypan Blue + (%) (HaCat cells; LL-37 25 μg/ml, 2% serum, 96 h): <1% | Increased Proliferation (%) (HaCat cells; LL-37 25 μg/ml, 2% serum, 96 h): 0% | Number of Cells (Mean) (HaCat cells; [2]): 36470 | Trypan Blue + (%) (HaCat cells; [2]): <1% | Increased Proliferation (%) (HaCat cells; [2]): 13% | Number of Cells (Mean) (HaCat cells; LL-37 50 μg/ml, 2% serum, 96 h): 53620 | Trypan Blue + (%) (HaCat cells; LL-37 50 μg/ml, 2% serum, 96 h): 30-50% | Increased Proliferation (%) (HaCat cells; LL-37 50 μg/ml, 2% serum, 96 h): Cytotoxic effect | Number of Cells (Mean) (HaCat cells; [3]): 40950 | Trypan Blue + (%) (HaCat cells; [3]): <1% | Increased Proliferation (%) (HaCat cells; [3]): 27% | Number of Cells (Mean) (HaCat cells; [4]): 15120 | Trypan Blue + (%) (HaCat cells; [4]): 100% | Increased Proliferation (%) (HaCat cells; [4]): Cytotoxic effect | cytotoxic effect when lipid was added (in words) (HaCat cells; LL-37 100 μg/ml, 2% serum, lipid added): completely abolished | Number of Cells (Mean) (HaCat cells; [5]): 66430 | Trypan Blue + (%) (HaCat cells; [5]): <1% | Increased Proliferation (%) (HaCat cells; [5]): 100% | Trypan Blue staining (in words) (HaCat cells; LL-37 100 μg/ml, medium containing 2% FCS): all of the keratinocytes became positive with Trypan Blue staining | Number of Cells (Mean) (HaCat cells; [6]): 150500 | Trypan Blue + (%) (HaCat cells; [6]): 100% | Increased Proliferation (%) (HaCat cells; [6]): Cytotoxic effect | Number of Cells (Mean) (HaCat cells; [7]): 88853 | Trypan Blue + (%) (HaCat cells; [7]): <1% | Increased Proliferation (%) (HaCat cells; [7]): 61% | Number of Cells (Mean) (HaCat cells; [8]): 87360 | Trypan Blue + (%) (HaCat cells; [8]): <1% | Increased Proliferation (%) (HaCat cells; [8]): 58% | Number of Cells (Mean) (HaCat cells; [9]): 91980 | Trypan Blue + (%) (HaCat cells; [9]): <1% | Increased Proliferation (%) (HaCat cells; [9]): 66% | proliferation of HaCat cells (in words) (HaCat cells; LL-37 25-100 μg/ml, media with 10% FCS): increases proliferation in a concentration-dependent manner | percentage α-helical structure ([1]; 200 ppm LL-37 in 10 mM phosphate buffer, pH 7.0, from minimum at 222 nm): about 63% | percentage α-helical structure ([1]; 200 ppm LL-37 with 0.40% (w/w) galactolipid, 10 mM phosphate buffer pH 7.0): ~64% | percentage α-helical structure ([1]; LL-37 with POPG (anionic phospholipid), same conditions): 58%
